US20260262643A1, “HERBICIDAL BENZOXAZINES” (FMC CORPORATION, priority 2022, published 2026)

How the values were obtained:
wheat [1] = experiment: Test C postemergence; assay type: in vivo, Triticum aestivum; conditions: 10 days
How it was run: (§1)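 Visual injury score, 0–100 (100 = complete control), taken 10 days after treatment relative to untreated controls. Pre: directed spray onto soil over sown seeds. Post: foliar spray at one- to two-leaf stage, 2–10 cm. Solvent/surfactant formulation; loam–sand soil; greenhouse.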

rice = experiment: Test D flooded paddy test; assay type: in vivo, Oryza sativa; conditions: 250 g ai/ha, applied to paddy water, visual rating after 13 to 14 days, scale 0 to 100 (0 no effect, 100 complete control)
How it was run: (§2)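 Seedlings reached the 2-leaf stage, then pots were flooded to 3 cm over the soil surface. Compound was applied into the water, depth was maintained, and plants stayed in the greenhouse 13 to 14 days before visual scoring (0–100) relative to controls.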

soybean [2] = experiment: Test C preemergence; assay type: in vivo, Glycine max; conditions: 0 to 100 scale (0 no effect, 100 complete control); for Plant response rating, Soybean: Preemergence, 500 g ai/ha, visual rating after 10 days; for Soybean plant response rating: Test C, preemergence, 125 g ai/ha
How it was run: as §1

ryegrass, Italian [3] = experiment: Test C preemergence; assay type: in vivo, Lolium multiflorum; conditions: 0 to 100 scale (0 no effect, 100 complete control); for Plant response rating, Ryegrass, Italian: Preemergence, 500 g ai/ha, visual rating after 10 days; for Ryegrass, Italian plant response rating: Test C, preemergence, 125 g ai/ha
How it was run: as §1

horseweed = experiment: Test C postemergence; assay type: in vivo, Erigeron canadensis; conditions: 10 days
How it was run: as §1

ducksalad = experiment: Test D flooded paddy test; assay type: in vivo, Heteranthera limosa; conditions: 250 g ai/ha, applied to paddy water, visual rating after 13 to 14 days, scale 0 to 100 (0 no effect, 100 complete control)
How it was run: as §2

wheat [4] = experiment: Test C preemergence; assay type: in vivo, Triticum aestivum; conditions: 0 to 100 scale (0 no effect, 100 complete control); for Plant response rating, Wheat: Preemergence, 500 g ai/ha, visual rating after 10 days; for Wheat plant response rating: Test C, preemergence, 125 g ai/ha
How it was run: as §1

kochia [5] = experiment: Test C preemergence; assay type: in vivo, Bassia scoparia; conditions: 0 to 100 scale (0 no effect, 100 complete control); for Plant response rating, Kochia: Preemergence, 500 g ai/ha, visual rating after 10 days
How it was run: as §1

ryegrass, Italian [6] = experiment: Test C postemergence; assay type: in vivo, Lolium multiflorum; conditions: 10 days
How it was run: as §1

pigweed, palmer [7] = experiment: Test C postemergence; assay type: in vivo, Amaranthus palmeri; conditions: 10 days
How it was run: as §1

corn [8] = experiment: Test C preemergence; assay type: in vivo, Zea mays; conditions: 0 to 100 scale (0 no effect, 100 complete control); for Plant response rating, Corn: Preemergence, 500 g ai/ha, visual rating after 10 days; for Corn plant response rating: Test C, preemergence, 125 g ai/ha
How it was run: as §1

ragweed [9] = experiment: Test C preemergence; assay type: in vivo, Ambrosia artemisiifolia; conditions: 0 to 100 scale (0 no effect, 100 complete control); for Plant response rating, Ragweed: Preemergence, 500 g ai/ha, visual rating after 10 days; for Ragweed plant response rating: Test C, preemergence, 125 g ai/ha
How it was run: as §1

sedge, umbrella = experiment: Test D flooded paddy test; assay type: in vivo, Cyperus difformis; conditions: 250 g ai/ha, applied to paddy water, visual rating after 13 to 14 days, scale 0 to 100 (0 no effect, 100 complete control)
How it was run: as §2

soybean [10] = experiment: Test C postemergence; assay type: in vivo, Glycine max; conditions: 10 days
How it was run: as §1

barnyardgrass [11] = experiment: Test C postemergence; assay type: in vivo, Echinochloa crusgalli; conditions: 10 days
How it was run: as §1

pigweed, palmer [12] = experiment: Test C preemergence; assay type: in vivo, Amaranthus palmeri; conditions: 0 to 100 scale (0 no effect, 100 complete control); for Plant response rating, Pigweed, Palmer: Preemergence, 500 g ai/ha, visual rating after 10 days; for Pigweed, Palmer plant response rating: Test C, preemergence, 125 g ai/ha
How it was run: as §1

corn [13] = experiment: Test C postemergence; assay type: in vivo, Zea mays; conditions: 10 days
How it was run: as §1

oat, wild [14] = experiment: Test C preemergence; assay type: in vivo, Avena fatua; conditions: 0 to 100 scale (0 no effect, 100 complete control); for Plant response rating, Oat, Wild: Preemergence, 500 g ai/ha, visual rating after 10 days; for Oat, Wild plant response rating: Test C, preemergence, 125 g ai/ha
How it was run: as §1

green foxtail [15] = experiment: Test C postemergence; assay type: in vivo, Setaria viridis; conditions: 10 days
How it was run: as §1

oat, wild [16] = experiment: Test C postemergence; assay type: in vivo, Avena fatua; conditions: 10 days
How it was run: as §1

galium = experiment: Test C postemergence; assay type: in vivo, Galium aparine; conditions: 10 days
How it was run: as §1

ragweed [17] = experiment: Test C postemergence; assay type: in vivo, Ambrosia artemisiifolia; conditions: 10 days
How it was run: as §1

blackgrass [18] = experiment: Test C postemergence; assay type: in vivo, Alopecurus myosuroides; conditions: 10 days
How it was run: as §1

kochia [19] = experiment: Test C postemergence; assay type: in vivo, Bassia scoparia; conditions: 10 days
How it was run: as §1

barnyardgrass [20] = experiment: Test D flooded paddy test; assay type: in vivo, Echinochloa crus-galli; conditions: 250 g ai/ha, applied to paddy water, visual rating after 13 to 14 days, scale 0 to 100 (0 no effect, 100 complete control)
How it was run: as §2

blackgrass [21] = experiment: Test C preemergence; assay type: in vivo, Alopecurus myosuroides; conditions: 0 to 100 scale (0 no effect, 100 complete control); for Plant response rating, Blackgrass: Preemergence, 500 g ai/ha, visual rating after 10 days; for Blackgrass plant response rating: Test C, preemergence, 125 g ai/ha
How it was run: as §1

barnyardgrass [22] = experiment: Test C preemergence; assay type: in vivo, Echinochloa crusgalli; conditions: 0 to 100 scale (0 no effect, 100 complete control); for Plant response rating, Barnyardgrass: Preemergence, 500 g ai/ha, visual rating after 10 days; for Barnyardgrass plant response rating: preemergence, 125 g ai/ha
How it was run: as §1

green foxtail [23] = experiment: Test C preemergence; assay type: in vivo, Setaria viridis; conditions: 0 to 100 scale (0 no effect, 100 complete control); for Plant response rating, Foxtail, Green: Preemergence, 500 g ai/ha, visual rating after 10 days; for Foxtail, Green plant response rating: Test C, preemergence, 125 g ai/ha
How it was run: as §1

[24] = 125 g ai/ha, postemergence, 0 to 100 scale, 0 no effect, 100 complete control
[25] = Postemergence, 500 g ai/ha, visual 0 to 100 scale (0 no effect, 100 complete control)

CC(C)c1ncn(-c2ccc([S+]([O-])C(F)(F)F)c(C(=O)N3C[C@H](C)Oc4c(Cl)cccc43)c2)n1 (stereo partly shown) [Compound 191]
Plant response rating, Wheat (wheat [1]; [24]): 10 | Plant response rating, Wheat (wheat [1]; [25]): 10 | Plant response rating, Rice (Flood) (rice): 0 | Plant response rating, Soybean (soybean [2]): 0 | Soybean plant response rating (soybean [2]): 0 | Plant response rating, Ryegrass, Italian (ryegrass, Italian [3]): 20 | Ryegrass, Italian plant response rating (ryegrass, Italian [3]): 0 | Plant response rating, Horseweed (horseweed; [24]): 0 | Plant response rating, Horseweed (horseweed; [25]): 0 | Plant response rating, Ducksalad (Flood) (ducksalad): 0 | Plant response rating, Wheat (wheat [4]): 0 | Wheat plant response rating (wheat [4]): 0 | Plant response rating, Kochia (kochia [5]): 0 | Plant response rating, Ryegrass, Italian (ryegrass, Italian [6]; [24]): 0 | Plant response rating, Ryegrass, Italian (ryegrass, Italian [6]; [25]): 0 | Plant response rating, Pigweed, Palmer (pigweed, palmer [7]; [24]): 0 | Plant response rating, Pigweed, Palmer (pigweed, palmer [7]; [25]): 30 | Plant response rating, Corn (corn [8]): 0 | Corn plant response rating (corn [8]): 0 | Plant response rating, Ragweed (ragweed [9]): 0 | Ragweed plant response rating (ragweed [9]): 0 | Plant response rating, Sedge, Umbrella (Flood) (sedge, umbrella): 0 | Plant response rating, Soybean (soybean [10]; [24]): 40 | Plant response rating, Soybean (soybean [10]; [25]): 90 | Plant response rating, Barnyardgrass (barnyardgrass [11]; [24]): 10 | Plant response rating, Barnyardgrass (barnyardgrass [11]; [25]): 10 | Plant response rating, Pigweed, Palmer (pigweed, palmer [12]): 0 | Pigweed, Palmer plant response rating (pigweed, palmer [12]): 0 | Plant response rating, Corn (corn [13]; [24]): 0 | Plant response rating, Corn (corn [13]; [25]): 0 | Plant response rating, Oat, Wild (oat, wild [14]): 0 | Oat, Wild plant response rating (oat, wild [14]): 0 | Plant response rating, Foxtail, Green (green foxtail [15]; [24]): 0 | Plant response rating, Foxtail, Green (green foxtail [15]; [25]): 0 | Plant response rating, Oat, Wild (oat, wild [16]; [24]): 0 | Plant response rating, Oat, Wild (oat, wild [16]; [25]): 0 | Plant response rating, Galium (galium; [24]): 0 | Plant response rating, Galium (galium; [25]): 50 | Plant response rating, Ragweed (ragweed [17]; [24]): 0 | Plant response rating, Ragweed (ragweed [17]; [25]): 0 | Plant response rating, Blackgrass (blackgrass [18]; [24]): 0 | Plant response rating, Blackgrass (blackgrass [18]; [25]): 0 | Plant response rating, Kochia (kochia [19]; [24]): 20 | Plant response rating, Kochia (kochia [19]; [25]): 20 | Plant response rating, Barnyardgrass (Flood) (barnyardgrass [20]): 0 | Plant response rating, Blackgrass (blackgrass [21]): 20 | Blackgrass plant response rating (blackgrass [21]): 0 | Plant response rating, Barnyardgrass (barnyardgrass [22]): 0 | Barnyardgrass plant response rating (barnyardgrass [22]; Test C): 0 | Plant response rating, Foxtail, Green (green foxtail [23]): 0 | Foxtail, Green plant response rating (green foxtail [23]): 0

CCn1cnc(-c2cccc(C(=O)N3C[C@H](C)Oc4c(C)cccc43)c2)n1 [Compound 165]
Plant response rating, Wheat (wheat [1]; [24]): 0 | Plant response rating, Wheat (wheat [1]; [25]): 0 | Plant response rating, Rice (Flood) (rice): 0 | Plant response rating, Soybean (soybean [2]): 0 | Soybean plant response rating (soybean [2]): 0 | Plant response rating, Ryegrass, Italian (ryegrass, Italian [3]): 0 | Ryegrass, Italian plant response rating (ryegrass, Italian [3]): 0 | Plant response rating, Horseweed (horseweed; [24]): 0 | Plant response rating, Horseweed (horseweed; [25]): 60 | Plant response rating, Ducksalad (Flood) (ducksalad): 0 | Plant response rating, Wheat (wheat [4]): 0 | Wheat plant response rating (wheat [4]): 0 | Plant response rating, Kochia (kochia [5]): 0 | Kochia plant response rating (kochia [5]; Test C, preemergence, 125 g ai/ha): 0 | Plant response rating, Ryegrass, Italian (ryegrass, Italian [6]; [24]): 0 | Plant response rating, Ryegrass, Italian (ryegrass, Italian [6]; [25]): 0 | Plant response rating, Pigweed, Palmer (pigweed, palmer [7]; [24]): 0 | Plant response rating, Pigweed, Palmer (pigweed, palmer [7]; [25]): 10 | Plant response rating, Corn (corn [8]): 0 | Corn plant response rating (corn [8]): 0 | Plant response rating, Ragweed (ragweed [9]): 20 | Ragweed plant response rating (ragweed [9]): 0 | Plant response rating, Sedge, Umbrella (Flood) (sedge, umbrella): 0 | Plant response rating, Soybean (soybean [10]; [24]): 30 | Plant response rating, Soybean (soybean [10]; [25]): 30 | Plant response rating, Barnyardgrass (barnyardgrass [11]; [24]): 0 | Plant response rating, Barnyardgrass (barnyardgrass [11]; [25]): 10 | Plant response rating, Pigweed, Palmer (pigweed, palmer [12]): 0 | Pigweed, Palmer plant response rating (pigweed, palmer [12]): 0 | Plant response rating, Corn (corn [13]; [24]): 0 | Plant response rating, Corn (corn [13]; [25]): 0 | Plant response rating, Oat, Wild (oat, wild [14]): 0 | Oat, Wild plant response rating (oat, wild [14]): 0 | Plant response rating, Foxtail, Green (green foxtail [15]; [24]): 0 | Plant response rating, Foxtail, Green (green foxtail [15]; [25]): 0 | Plant response rating, Oat, Wild (oat, wild [16]; [24]): 0 | Plant response rating, Oat, Wild (oat, wild [16]; [25]): 0 | Plant response rating, Galium (galium; [24]): 0 | Plant response rating, Galium (galium; [25]): 0 | Plant response rating, Ragweed (ragweed [17]; [24]): 0 | Plant response rating, Ragweed (ragweed [17]; [25]): 0 | Plant response rating, Blackgrass (blackgrass [18]; [24]): 0 | Plant response rating, Blackgrass (blackgrass [18]; [25]): 10 | Plant response rating, Kochia (kochia [19]; [24]): 0 | Plant response rating, Kochia (kochia [19]; [25]): 0 | Plant response rating, Barnyardgrass (Flood) (barnyardgrass [20]): 0 | Plant response rating, Blackgrass (blackgrass [21]): 0 | Blackgrass plant response rating (blackgrass [21]): 0 | Barnyardgrass plant response rating (barnyardgrass [22]): 0 | Plant response rating, Barnyardgrass (barnyardgrass [22]): 0 | Plant response rating, Foxtail, Green (green foxtail [23]): 0 | Foxtail, Green plant response rating (green foxtail [23]): 0
